Experimental data from patent publication US20150031714A1, “METHODS AND COMPOSITIONS FOR PREVENTION OF ALLERGIC REACTION” (Baylor College of Medicine, priority 2013, published 2015).
pIC50: −log10 of the molar value.

Test system: Stat3 (pY705)
Test: Immunoblot assay of IL-6-mediated phosphorylation of Stat3 in HepG2 cells
Format: cell-based
Settings: Homo sapiens; Table 4; HepG2, compound 60 min, IL-6 30 ng/ml 30 min; read-out: pStat3 IC50
Protocol: Cells were then stimulated with IL-6 (30 ng/ml) for 30 min. Protein extracts of cells were separated by SDS-PAGE, blotted and developed serially with antibodies to pStat3, total Stat3 and β-actin. Blots were stripped between each antibody probing. The bands intensities of immunoblot were quantified by densitometry. The value of each pStat3 band's intensity was divided by each corresponding value of total Stat3 band intensity and the results normalized to the DMSO-treated control value and plotted as a function of the log compound concentration. The best-fit curves were generated based on 4 Parameter Logistic Model/Dose Response One Site/XLfit 4.2, IDBS. Each panel is representative of 3 or more experiments.
Immunoblot assay. The human hepatocellular carcinoma cell line (HepG2) was grown in 6-well plates under standard conditions. Cells were pretreated with compounds (0, 1, 3, 10, 30, 100 and 300 uM) for 1 hour then stimulated under optimal conditions with either interferon gamma (IFN-γ; 30 ng/ml for 30 min) to activate Stat1 or interleukin-6 (IL-6; 30 ng/ml for 30 min) to activate Stat3 (30-31). Cultures were then harvested and proteins extracted using high-salt buffer, as described (Shao et al., 2006). […]
EXP IIC. […] Band intensities are quantified by densitometry. […]

SMILES	pIC50
O=C(O)c1ccc(C=CC(=O)c2ccc3c(c2)OCCO3)cc1 [Cpd3, 4-[3-(2,3-dihydro-1,4-benzodioxin-6-yl)-3-oxo-1-propen-1-yl]benzoic acid]	4.04
CCOc1cc(C=C2C(=O)c3ccccc3C2=O)cc(Cl)c1OCc1cccc(C(=O)O)c1 [Cpd3-2, 3-({2-chloro-4-[(1,3-dioxo-1,3-dihydro-2H-inden-2-ylidene)methyl]-6-ethoxyphenoxy}methyl)benzoic acid]	3.84
